Broadly, the pIC50 is the negative decadic logarithm of the IC50, by convention in mol/L. A high value points to a small IC50.

Test [1] has as its target Coagulation factor X (Homo sapiens, UniProt P00742). Description: In vitro inhibitory activity was evaluated against Coagulation factor X.
The nature of test [2]: In vitro inhibitory activity was evaluated against FIIa serine protease.
In test [3] the target is Serine protease 1 (Homo sapiens, UniProt P07477). Description: In vitro inhibitory activity was evaluated against human trypsin.
Serine protease 1, sequence (P07477 whole entry): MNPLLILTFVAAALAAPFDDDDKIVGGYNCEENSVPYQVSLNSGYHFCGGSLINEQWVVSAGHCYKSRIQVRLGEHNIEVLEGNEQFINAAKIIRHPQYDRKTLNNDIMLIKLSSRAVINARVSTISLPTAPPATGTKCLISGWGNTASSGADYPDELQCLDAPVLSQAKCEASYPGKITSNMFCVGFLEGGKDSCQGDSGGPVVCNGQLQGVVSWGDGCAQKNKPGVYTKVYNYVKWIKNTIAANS
Test [4] deals with T1, Plasminogen (Rattus norvegicus, UniProt Q01177). In words: In vitro inhibitory activity was evaluated against thrombolytic enzyme plasmin.
T1 sequence (Q01177 97-581 limits assumed): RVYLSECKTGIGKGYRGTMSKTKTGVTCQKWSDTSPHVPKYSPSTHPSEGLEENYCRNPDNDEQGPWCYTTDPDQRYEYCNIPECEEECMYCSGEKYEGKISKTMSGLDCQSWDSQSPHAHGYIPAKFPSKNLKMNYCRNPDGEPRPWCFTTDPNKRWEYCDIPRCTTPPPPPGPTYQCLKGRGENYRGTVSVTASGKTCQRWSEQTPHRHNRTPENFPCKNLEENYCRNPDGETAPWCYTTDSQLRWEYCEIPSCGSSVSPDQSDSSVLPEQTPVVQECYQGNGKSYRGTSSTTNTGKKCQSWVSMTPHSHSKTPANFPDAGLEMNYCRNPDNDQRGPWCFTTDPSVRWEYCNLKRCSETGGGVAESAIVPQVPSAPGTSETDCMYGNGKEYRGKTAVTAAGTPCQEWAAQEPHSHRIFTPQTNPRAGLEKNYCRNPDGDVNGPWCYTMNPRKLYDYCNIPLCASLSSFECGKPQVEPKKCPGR
T1 sequence (Q01177 582-812 limits assumed): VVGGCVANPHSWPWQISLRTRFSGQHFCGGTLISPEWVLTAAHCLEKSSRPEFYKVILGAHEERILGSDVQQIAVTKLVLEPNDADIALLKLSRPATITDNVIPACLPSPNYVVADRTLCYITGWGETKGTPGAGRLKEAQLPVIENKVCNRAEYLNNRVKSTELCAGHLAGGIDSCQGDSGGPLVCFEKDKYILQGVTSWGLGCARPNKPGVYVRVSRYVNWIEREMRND
Test [5] has as its target T1, Plasminogen. Description: In vitro inhibitory activity was evaluated against thrombolytic enzyme plasmin; Inactive.

pIC50: −log10 of the molar value.

Coagulation factor X, sequence (P00742 41-179 limits assumed): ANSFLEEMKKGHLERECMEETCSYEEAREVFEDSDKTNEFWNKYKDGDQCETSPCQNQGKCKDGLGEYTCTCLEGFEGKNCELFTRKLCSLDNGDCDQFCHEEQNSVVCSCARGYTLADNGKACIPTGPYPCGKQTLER
Coagulation factor X, sequence (P00742 235-488 limits assumed): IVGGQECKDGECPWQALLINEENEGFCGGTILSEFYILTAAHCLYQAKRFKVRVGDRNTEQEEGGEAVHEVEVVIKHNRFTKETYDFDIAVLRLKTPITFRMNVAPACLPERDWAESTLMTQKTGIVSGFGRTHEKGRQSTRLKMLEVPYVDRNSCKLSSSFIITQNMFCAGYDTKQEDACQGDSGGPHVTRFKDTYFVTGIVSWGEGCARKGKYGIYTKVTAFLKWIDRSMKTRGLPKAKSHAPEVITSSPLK

With `N=C(N)N1CCC[C@H](NC(=O)CN2CCCC[C@H](NS(=O)(=O)Cc3ccccc3C(=O)OCC3CCCCC3)C2=O)C1O` (stereo not given in full), the negative logarithm of the IC50 (pIC50) in test [1] is 6.20; in test [2], 9.25; in test [3], 6.87; in test [4] it was 5.75.

Take `N=C(N)N1CCC[C@H](NC(=O)CN2CCCC[C@H](NS(=O)(=O)Cc3ccccc3)C2=O)C1O` (stereo not given in full): the pIC50 in test [1] is 7.40; in test [2], 9.15; in test [3] it was 7.00; in test [4] it was below 5.60.

As to `CC(C)OC(=O)c1ccccc1CS(=O)(=O)N[C@H]1CCCCN(CC(=O)N[C@H]2CCCN(C(=N)N)C2O)C1=O` (stereo not given in full), the pIC50 is 6.43 in test [1], 9.03 in test [2], 7.38 in test [3] and below 5.60 in test [4].

With `N=C(N)N1CCC[C@H](NC(=O)CN2CCC[C@H](NS(=O)(=O)Cc3ccccc3)C2=O)C1O` (stereo not given in full), the negative logarithm of the IC50 (pIC50) was below 5.60 in test [1] and 8.21 in test [2]. The IC50 entry in test [5] is reported as “Not Active”.

As to `COC(=O)c1ccccc1CS(=O)(=O)N[C@H]1CCCCN(CC(=O)N[C@H]2CCCN(C(=N)N)C2O)C1=O` (stereo not given in full), the pIC50 in test [1] is 6.48; in test [2], 9.12; in test [3], 6.93; in test [4], below 5.60.

With `CCCCCCCCCCOC(=O)c1ccccc1CS(=O)(=O)N[C@H]1CCCCN(CC(=O)N[C@H]2CCCN(C(=N)N)C2O)C1=O` (stereo not given in full), the pIC50 in test [1] was below 5.60; in test [2], 8.15; in test [3], 6.84; in test [4] it was below 5.60.

For the compound `CCCOC(=O)c1ccccc1CS(=O)(=O)N[C@H]1CCCCN(CC(=O)N[C@H]2CCCN(C(=N)N)C2O)C1=O` (stereo not given in full), the pIC50 in test [1] is 6.35; in test [2], 9.02; in test [3], 7.10; in test [4], below 5.60.

`N=C(N)N1CCC[C@H](NC(=O)CN2CCCC[C@H](N3C(=O)c4ccccc4CS3(=O)=O)C2=O)C1O` (stereo not given in full): the pIC50 is below 5.60 in test [1], 6.61 in test [2], 5.60 in test [3] and below 5.60 in test [4].

As for `N=C(N)N1CCC[C@H](NC(=O)CN2CCCC[C@H](NS(=O)(=O)Cc3ccccc3C(=O)O)C2=O)C1O` (stereo not given in full), the pIC50 was below 5.60 in test [1], 7.41 in test [2], 6.61 in test [3] and below 5.60 in test [4].

These data come from ChEMBL document CHEMBL1130728, “Alkoxide-catalyzed ring-opening of a novel homosaccharin derivative: synthesis of potent, selective P3-lactam thrombin inhibitors containing P4-o-alkoxycarbonylbenzylsulfonamide residues” (Bioorg Med Chem Lett, 1998).
